The values that follow come from patent US10071095B2, “1,2,4-triazolo [4,3-A] pyridine derivatives and their use for the treatment of neurological and psychiatric disorders” (JANSSEN PHARMACEUTICALS, INC., priority 2009, dated 2018).

The structures appear in SMILES notation.

In the first assay the target is T1, human mGluR2 receptor (Homo sapiens, UniProt Q14416).
T1 construct: expressed in transfected cells; host or cells: CHO cells
T1 sequence (Q14416 19-872): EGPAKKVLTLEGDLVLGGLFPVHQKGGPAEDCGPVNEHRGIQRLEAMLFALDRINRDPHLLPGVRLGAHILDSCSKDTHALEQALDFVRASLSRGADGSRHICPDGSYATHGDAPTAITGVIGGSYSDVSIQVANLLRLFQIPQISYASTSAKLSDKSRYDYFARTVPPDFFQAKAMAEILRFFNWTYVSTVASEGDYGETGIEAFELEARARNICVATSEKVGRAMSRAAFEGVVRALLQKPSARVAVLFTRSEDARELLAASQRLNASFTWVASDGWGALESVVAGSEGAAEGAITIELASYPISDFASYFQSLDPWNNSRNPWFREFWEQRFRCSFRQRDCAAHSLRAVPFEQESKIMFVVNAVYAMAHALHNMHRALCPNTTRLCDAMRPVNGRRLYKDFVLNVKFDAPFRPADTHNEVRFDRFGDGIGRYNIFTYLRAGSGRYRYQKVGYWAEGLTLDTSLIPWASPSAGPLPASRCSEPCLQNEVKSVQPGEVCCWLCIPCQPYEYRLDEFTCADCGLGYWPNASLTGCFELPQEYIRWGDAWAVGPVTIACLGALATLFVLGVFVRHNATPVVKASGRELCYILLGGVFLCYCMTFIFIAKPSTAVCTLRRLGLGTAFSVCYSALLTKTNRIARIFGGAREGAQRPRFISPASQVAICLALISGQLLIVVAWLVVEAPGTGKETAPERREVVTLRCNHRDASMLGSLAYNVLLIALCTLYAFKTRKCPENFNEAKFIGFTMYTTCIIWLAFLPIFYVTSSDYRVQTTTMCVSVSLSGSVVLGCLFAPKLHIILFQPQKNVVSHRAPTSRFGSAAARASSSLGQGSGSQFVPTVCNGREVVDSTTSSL
Nature of the assay: [35S]GTPγS binding assay, positive allosteric modulation (GTPγS-PAM) in presence of EC20 glutamate. The format is biochemical. The settings on record: in presence of glutamate at EC20; average pEC50 if more experiments; ‡ means tested once. As for the experimental part:
[^35S]GTPγS Binding Assay
The [^35S]GTPγS binding assay is a functional membrane-based assay used to study G-protein coupled receptor (GPCR) function whereby incorporation of a non-hydrolysable form of GTP, [^35S]GTPγS (guanosine 5′-triphosphate, labelled with […] ^35S), is measured. The G-protein α subunit catalyzes the exchange of guanosine 5′-diphosphate (GDP) by guanosine triphosphate (GTP) and on activation of the GPCR by an agonist, [^35S]GTPγS, becomes incorporated and cannot be cleaved to continue the exchange cycle (Harper (1998) Current Protocols in Pharmacology 2.6.1-10, John Wiley & Sons, Inc.). […] Here we describe the use of the [^35S]GTPγS binding assay using membranes from cells transfected with the human mGluR2 receptor and adapted from Schaffhauser et al. ((2003) Molecular Pharmacology 4:798-810) for the detection of the positive allosteric modulation (PAM) properties of the compounds of this invention.
CHO-cells were cultured to pre-confluence and stimulated with 5 mM butyrate for 24 h, prior to washing in PBS, and then collected by scraping in homogenisation buffer (50 mM Tris-HCl buffer, pH 7.4, 4° C.). Cell lysates were homogenized briefly using an ultra-turrax homogenizer. The homogenate was centrifuged at 16,000 RPM (Sorvall RC-5C plus rotor SS-34) for 10 minutes and the supernatant discarded. The pellet was resuspended in 5 mM Tris-HCl, pH 7.4 and centrifuged again (18,000 RPM, 20 min, 4° C.). The final pellet was resuspended in 50 mM Tris-HCl, pH 7.4 and stored at −80° C. in appropriate aliquots before use. Protein concentration was determined by the Bradford method (Bio-Rad, USA) with bovine serum albumin as standard.
Measurement of mGluR2 positive allosteric modulatory activity of test compounds was performed as follows. Test compounds and glutamate were diluted in assay buffer containing 10 mM HEPES acid, 10 mM HEPES salt, pH 7.4, 100 mM NaCl, 3 mM MgCl2 and 10 μM GDP. Human mGlu2 receptor-containing membranes were thawed on ice and diluted in assay buffer supplemented with 14 μg/ml saponin. Membranes were pre-incubated with compound alone or together with a predefined (˜EC20) concentration of glutamate (PAM assay) for 30 min at 30° C. After addition of [^35S]GTPγS (f.c. 0.1 nM) microplates were shaken briefly and further incubated to allow [^35S]GTPγS incorporation on activation (30 minutes, 30° C.). Final assay mixtures contained 7 μg of membrane protein in 10 mM HEPES acid, 10 mM HEPES salt, pH 7.4, 100 mM NaCl, 3 mM MgCl2, 10 µM GDP and 10 μg/ml saponin. Total reaction volume was 200 μl. Reactions were terminated by rapid filtration through Unifilter-96 GF/B filter plates (Packard, Meriden, Conn.) using a 96-well Packard filtermate harvester. Filters were washed 6 times with ice-cold 10 mM NaH2PO4/10 mM Na2HPO4, pH 7.4. Filters were then air-dried, and 40 μl of liquid scintillation cocktail (Microscint-O) was added to each well. Membrane-bound radioactivity was counted in a Microplate Scintillation and Luminescence Counter from Packard.
The concentration-response curves of representative compounds of the present invention-obtained in the presence of EC20 of mGluR2 agonist glutamate to determine positive allosteric modulation (PAM)—were generated using the Lexis software interface (developed at J&J).
Consider `Fc1ccc(N2CCC3(CCN(c4ccn5c(CC6CC6)nnc5c4C(F)(F)F)CC3)C2)c(F)c1` [compound 202], for which the “GTPγS - hR2 PAM pEC50” value is listed as 7.86‡.
As for `COc1cccc(F)c1N1CCN(c2ccn3c(CC4CC4)nnc3c2C(F)(F)F)CC1` [compound 301], the “GTPγS - hR2 PAM pEC50” value was 7.45‡.
As for `COc1cccnc1C1CCN(c2ccn3c(CC4CC4)nnc3c2C(F)(F)F)CC1` [compound 91], the “GTPγS - hR2 PAM pEC50” value turned out to be 7.27.
Consider `CC1(c2ccccc2F)CCN(c2ccn3c(CC4CC4)nnc3c2C(F)(F)F)CC1` [compound 193], for which the “GTPγS - hR2 PAM pEC50” value is 8.26.
`FC(F)(F)c1c(N2CCC(c3ccccc3)CC2)ccn2c(CC3CCC3)nnc12` [compound 185]: the “GTPγS - hR2 PAM pEC50” value came to 8.26.
On to `CC1CN(c2ccn3c(CC4CC4)nnc3c2C(F)(F)F)CCC1c1ccccc1` (stereo not shown) [compound 169], for which the “GTPγS - hR2 PAM pEC50” value is 7.77‡.
Same read-out and setting: under `Cc1cccnc1OC1CCN(c2ccn3c(CC4CC4)nnc3c2Cl)CC1` [compound 48] stands 6.9‡; under `FC(F)(F)c1c(N2CC(c3ccccc3)C2)ccn2c(CC3CC3)nnc12` [compound 137], 6.87; under `FC(F)(F)c1c(N2CCN(CCc3ccccc3)CC2)ccn2c(CC3CC3)nnc12` [compound 216], 6.68.
Still for that read-out and setting: under `FC(F)(F)c1c(N2CCC(c3cccnc3)CC2)ccn2c(CC3CC3)nnc12` [compound 198] stands 6.29‡.
Same read-out and setting: under `CCCc1nnc2c(C(F)(F)F)c(N3CCC4(CC3)OC(F)(F)c3ccccc34)ccn12` [compound 142] stands 6.55‡; under `N#Cc1c(N2CCN(C3CCC(C(F)(F)F)CC3)CC2)ccn2c(CC(F)(F)F)nnc12` (stereo not shown) [compound 73], 6.13; under `FC(F)(F)c1c(N2CCC(NCc3ccccc3)CC2)ccn2c(CC3CC3)nnc12` [compound 230], 5.61‡.
For `COc1cccc(F)c1C1CCN(c2ccn3c(CC(F)(F)F)nnc3c2C#N)CC1` [compound 51], the “GTPγS - hR2 PAM pEC50” value was 8.35‡.
As for `Fc1ccc(CN2CCCC3(C2)CN(c2ccn4c(CC5CC5)nnc4c2C(F)(F)F)C3)c(F)c1` [compound 232], the “GTPγS - hR2 PAM pEC50” value stood at 7.64.
For the compound `Fc1ccc(N2CCCC3(C2)CN(c2ccn4c(CC5CC5)nnc4c2C(F)(F)F)C3)c(F)c1` [compound 188], the “GTPγS - hR2 PAM pEC50” value was 8‡.
Take `FC(F)(F)C1(OCc2cccnc2)CCN(c2ccn3c(CC4CC4)nnc3c2Cl)CC1` [compound 158]: the “GTPγS - hR2 PAM pEC50” value is on record as 6.14.
Regarding `Cc1cc(OC2CCN(c3ccn4c(CC5CC5)nnc4c3C(F)(F)F)CC2)ccn1` [compound 165], the “GTPγS - hR2 PAM pEC50” value is given as 6.41.
With `Fc1ccccc1NC1CCN(c2ccn3c(CC4CC4)nnc3c2C(F)(F)F)CC1` [compound 183], the “GTPγS - hR2 PAM pEC50” value amounted to 7.08.
For the compound `CCOCc1nnc2c(C(F)(F)F)c(N3CCC(c4ccccc4)CC3)ccn12` [compound 136], the “GTPγS - hR2 PAM pEC50” value is given as 7.69‡.
Still for that read-out and setting: under `CCCCc1nnc2c(C(F)(F)F)c(N3CC4C(C3)C4c3ccccc3)ccn12` (racemic) [compound 338] stands 7.42‡.
For `CCc1nnc2c(C#N)c(N3CCC(c4cccc(F)c4OC)CC3)ccn12` [compound 21], the “GTPγS - hR2 PAM pEC50” value is 6.61.
Take `CCCc1nnc2c(Cl)c(N3CCC4(CC3)OCc3ccccc34)ccn12` [compound 93]: the “GTPγS - hR2 PAM pEC50” value amounted to 6.53.
As for `CC1CN(c2ccn3c(CC4CC4)nnc3c2Cl)CCC1c1ccccc1` (single isomer, unassigned) [compound 211], the “GTPγS - hR2 PAM pEC50” value is given as 7.44.
For the compound `N#Cc1c(N2CCC(c3ccccc3)CC2)ccn2c(CN3CCCC3)nnc12` [compound 36], the “GTPγS - hR2 PAM pEC50” value is on record as 5.95‡.
Regarding `Clc1c(N2CCC(n3ccc4ccccc43)CC2)ccn2c(CC3CC3)nnc12` [compound 259], the “GTPγS - hR2 PAM pEC50” value is 6.67‡.
Turning to `N#Cc1c(N2CCC(c3ccccc3)CC2)ccn2c(CC3CC3)nnc12` [compound 13, 3-(cyclopropylmethyl)-7-(4-phenyl-1-piperidinyl)-1,2,4-triazolo[4,3-a]pyridine-8-carbonitrile], the “GTPγS - hR2 PAM pEC50” value was 7.13.
Turning to `FC(F)(F)Cc1nnc2c(Cl)c(N3CCC(Oc4ccccn4)CC3)ccn12` [compound 114], the “GTPγS - hR2 PAM pEC50” value is listed as 6.33.
For `N#Cc1c(N2CCC(c3ccccc3)(C(F)(F)F)CC2)ccn2c(CC3CC3)nnc12` [compound 120], the “GTPγS - hR2 PAM pEC50” value is recorded as 6.31.
As for `CCOCc1nnc2c(Cl)c(N3CCC(c4ccccc4OC)CC3)ccn12` [compound 82], the “GTPγS - hR2 PAM pEC50” value came to 7.51.
`FC(F)(F)Cc1nnc2c(Cl)c(N3CCC(c4ccccn4)CC3)ccn12` [compound 56]: the “GTPγS - hR2 PAM pEC50” value was 6.02‡.
Still for that read-out and setting: under `FC1(c2ccccc2)CCN(c2ccn3c(CC4CC4)nnc3c2Cl)CC1` [compound 42] stands 6.83.
Still for that read-out and setting: under `Clc1c(N2CCN(C3COc4ccccc4C3)CC2)ccn2c(CC3CC3)nnc12` (stereo not shown) [compound 164] stands 6.46; under `CC1(c2cccc(F)c2)CCN(c2ccn3c(CC4CC4)nnc3c2C(F)(F)F)CC1` [compound 197], 7.82‡; under `COc1cccc(F)c1N1CCN(c2ccn3c(CC4CC4)nnc3c2Cl)CC1` [compound 302], 6.55.
Same read-out and setting: under `FC(F)(F)c1cccc(CN2CCN(c3ccn4c(CC5CC5)nnc4c3Cl)CC2)c1` [compound 218] stands 6.05‡; under `Fc1ccc(N2CCN(c3ccn4c(CC5CC5)nnc4c3C(F)(F)F)CC2)c(F)c1` [compound 196], 7.06; under `CC1CN(c2ccn3c(CC4CC4)nnc3c2Cl)CCC1c1ccccc1` (stereo not shown) [compound 168], 7.22.
Consider `Fc1ccc(N2CC3(CCN(c4ccn5c(CC6CC6)nnc5c4Cl)CC3)C2)c(F)c1` [compound 210], for which the “GTPγS - hR2 PAM pEC50” value was determined as 6.5.
Consider `FC(F)(F)c1c(N2CCC(Oc3cccnc3)CC2)ccn2c(CC3CC3)nnc12` [compound 167], for which the “GTPγS - hR2 PAM pEC50” value is given as 6.47‡.
On to `CCCc1nnc2c(C(F)(F)F)c(N3CCC(c4ccccc4)CC3)ccn12` [compound 67], for which the “GTPγS - hR2 PAM pEC50” value came to 7.36.
As to `Fc1ccc(NC2CCN(c3ccn4c(CC5CC5)nnc4c3C(F)(F)F)CC2)c(F)c1` [compound 203], the “GTPγS - hR2 PAM pEC50” value was 6.73.
The same measure, in the same setting: under `CC1(c2ccc(F)cc2)CCN(c2ccn3c(CC4CC4)nnc3c2C(F)(F)F)CC1` [compound 194] stands 7.69.
Still for that read-out and setting: under `CCCCc1nnc2c(C(F)(F)F)c(N3CCC(c4ccc(F)cc4F)CC3)ccn12` [compound 327] stands 7.71‡; under `Fc1ccc(N2CCN(c3ccn4c(CC5CC5)nnc4c3C(F)(F)F)CC2)nc1` [compound 360], 6.44‡.
As for `COCc1nnc2c(C#N)c(N3CCC(c4ccccc4)CC3)ccn12` [compound 24], the “GTPγS - hR2 PAM pEC50” value is reported as 6.33‡.

Still in this assay, the particulars now being: in presence of glutamate at EC20; average pEC50 if more experiments; ‡ means tested once; read-out: GTPγS - hR2 PAM pEC50 (converted).
As to `CC1(C)OC2(CCN(c3ccn4c(CC(F)(F)F)nnc4c3Cl)CC2)c2ccccc21` [compound 139], the EC50 was 4.37 nM.
`FC(F)(F)c1c(N2CCC3(CC2)OC(F)(F)c2ccccc23)ccn2c(CC3CC3)nnc12` [compound 147, 1′-[3-cyclopropylmethyl-8-(trifluoromethyl)[1,2,4]triazolo[4,3-a]pyridin-7-yl]-3,3-difluoro-3H-spiro[benzo[c]furan-1,4′-piperidine]]: the EC50 was 245 nM.
With `FC(F)(F)c1c(N2CCC3(CC2)COc2ncccc23)ccn2c(CC3CC3)nnc12` [compound 119, 1′-[3-cyclopropylmethyl-8-(trifluoromethyl)[1,2,4]triazolo[4,3-a]pyridin-7-yl]-spiro[furo[2,3-b]pyridine-3(2H),4′-piperidine]], the EC50 was 1740 nM.
